System: ANKA strain of P. berghei
Assay: Single dose STI in vivo screen in infected mice
Set-up: species or system Plasmodium berghei
Settings: for Survival (days) 3 mg/kg SSV po / Activity (%) 3 mg/kg SSV po: single 3 mg/kg po in SSV; for Activity (%) 3 mg/kg SSV po / Activity (%) 10 mg/kg SSV po: percent reduction in parasitemia on day 3; for Survival (days) 10 mg/kg SSV po: single 10 mg/kg po in SSV, untreated 6-7 days; for Activity (%) 10 mg/kg SSV po: single 10 mg/kg po in standard suspending vehicle (SSV) on day 1 post-infection
Protocol: In the single dose STI in vivo screen, Moro SPF or NMRI mice infected with the ANKA strain of P. berghei (groups of three mice) were treated on day one post-infection with trioxolanes dissolved or suspended in 3% ethanol and 7% Tween 80. […] SSV consists of 0.5% w/v CMC, 0.5% v/v benzyl alcohol, 0.4% v/v Tween 80, and 0.9% w/v sodium chloride in water. Antimalarial activity was measured by percent reduction in parasitemia on day three post-infection and survival times compared to an untreated control group. Survival to day 30 post-infection is considered to be a cure. […] Other factors influencing antimalarial activity include the stability of carbon radicals formed by β-scission subsequent to the initial electron transfer to the peroxide bond and the influence of steric effects remote from the peroxide bond on the interactions between carbon radicals and potential drug targets.
Moro NMRI male mice (Fu Albino specific pathogen free) weighing 18±2 g were infected intravenously (i.v.) with 2×10^7 P. berghei ANKA strain-infected erythrocytes from donor mice on day 0 of the experiment. From donor mice with circa 30% parasitemia, heparinized blood was taken and diluted in physiological saline to 10^8 parasitized erythrocytes per ml. An aliquot (0.2 ml) of this suspension was injected i.v. into experimental and control groups of mice. […] Throughout the experiments, mice were kept in groups of three or five animals in Makrolon type II cages in an air-conditioned animal room at 22 to 23° C.
They were administered per os (p.o.) in a total volume of 0.01 ml per gram of mouse. The activity of the compound was determined by a variety of methods outlined in subsequent sections. Survival time was also recorded, and survival to day 30 post-infection was considered to be a cure.

Compound | Survival (days) 3 mg/kg SSV po | Activity (%) 3 mg/kg SSV po [%] | Survival (days) 10 mg/kg SSV po | Activity (%) 10 mg/kg SSV po [%]
O=C(C[C@H]1CC[C@]2(CC1)OO[C@]1(O2)C2CC3CC(C2)CC1C3)N1CCN(c2ncccn2)CC1 [OZ314] | 6.6/6.6 days | 11 | 6.6/6.6 days | 13
O=C(CNC(=O)c1cccnc1)NC[C@H]1CC[C@]2(CC1)OO[C@]1(O2)C2CC3CC(C2)CC1C3 [OZ316] | 8.0 days | 7 | 10.0 days | 69
CCOC(=O)CCNCC1CCC2(CC1)OOC1(O2)C2CC3CC(C2)CC1C3.Cc1ccc(S(=O)(=O)O)cc1 (stereo not shown) [OZ318] | 7.6 days | 29 | 12.4 days | 88
NC(=O)c1cn(C[C@H]2CC[C@]3(CC2)OO[C@]2(O3)C3CC4CC(C3)CC2C4)cn1 [OZ320] |  | 92 |  | 
NC(=O)c1cncn1C[C@H]1CC[C@]2(CC1)OO[C@]1(O2)C2CC3CC(C2)CC1C3 [OZ321] | 9.8 days | 64 | 14.0 days | 
O=S(=O)(C[C@H]1CC[C@]2(CC1)OO[C@]1(O2)C2CC3CC(C2)CC1C3)c1cccc[n+]1[O-] [OZ324] | 7.4 days | 26 | 9.4 days | 60
c1cnc(OC[C@H]2CC[C@]3(CC2)OO[C@]2(O3)C3CC4CC(C3)CC2C4)nc1 [OZ325] | 6.2 days | 30 | 8.8 days | 
c1cnc(NC[C@H]2CC[C@]3(CC2)OO[C@]2(O3)C3CC4CC(C3)CC2C4)nc1 [OZ326] | 6.0 days | 7 | 7.4 days | 80
NC(=O)[C@@H]1CCCN1C[C@H]1CC[C@]2(CC1)OO[C@]1(O2)C2CC3CC(C2)CC1C3 [OZ327] | 7.0 days | 72 | 9.8 days | 97
[O-][n+]1ccccc1SC[C@H]1CC[C@]2(CC1)OO[C@]1(O2)C2CC3CC(C2)CC1C3 [OZ328] | 7.6 days | 75 | 8.6 days | 99.77
Nc1nccnc1C(=O)NC[C@H]1CC[C@]2(CC1)OO[C@]1(O2)C2CC3CC(C2)CC1C3 [OZ330] | 7.2 days | 82 | 12.2 days | 
Cn1nnnc1SC[C@H]1CC[C@]2(CC1)OO[C@]1(O2)C2CC3CC(C2)CC1C3 [OZ331] | 7.0 days | 66 | 9.0 days | 
Cn1nnnc1S(=O)(=O)C[C@H]1CC[C@]2(CC1)OO[C@]1(O2)C2CC3CC(C2)CC1C3 [OZ332] | 6.0/6.0 days | 0 | 6.0/6.0 days | 8
C[C@H](N)C(=O)NC[C@H]1CC[C@]2(CC1)OO[C@]1(O2)C2CC3CC(C2)CC1C3 [OZ335] | 10.0 days | 97 | 9.2 days | 
NCCC(=O)NC[C@H]1CC[C@]2(CC1)OO[C@]1(O2)C2CC3CC(C2)CC1C3 [OZ336] | 9.6 days | 98 | 9.2 days | 
O=C(NC[C@H]1CC[C@]2(CC1)OO[C@]1(O2)C2CC3CC(C2)CC1C3)[C@@H]1CCCN1 [OZ337] |  | 97 | 8.6 days | 
N[C@H]1CCN(C(=O)C[C@H]2CC[C@]3(CC2)OO[C@]2(O3)C3CC4CC(C3)CC2C4)C1 [OZ338] | 8.0 days |  | 9.8 days | 

Source: patent US6825230B2, “Spiro and dispiro 1,2,4-trixolane antimalarials” (Medicines for Malaria Venture MMV, priority 2002, dated 2004)
